Test results taken from ChEMBL document CHEMBL2440076, “New triarylpyrazoles as broad-spectrum anticancer agents: design, synthesis, and biological evaluation” (Eur J Med Chem, 2013).

Assays:
Format in all cases: functional
MDA-MB-435 = test: Growth inhibition of human MDA-MB-435 cells assessed as cell growth at 10^-5 M after 48 hrs by sulforhodamine B assay; conditions: MDA-MB-435, 48 h, read-out: Activity
COLO 205 [1] = test: Growth inhibition of human COLO205 cells assessed as cell growth at 10^-4 M after 48 hrs by sulforhodamine B assay; conditions: COLO 205, 48 h, read-out: Activity
UACC-62 = test: Growth inhibition of human UACC62 cells assessed as cell growth at 10^-5 M after 48 hrs by sulforhodamine B assay; conditions: UACC-62, 48 h, read-out: Activity
SR [2] = test: Growth inhibition of human SR cells assessed as cell growth at 10^-4 M after 48 hrs by sulforhodamine B assay; conditions: read-out: Activity
NCI-H460 = test: Growth inhibition of human NCI-H460 cells assessed as cell growth at 10^-7 M after 48 hrs by sulforhodamine B assay; conditions: NCI-H460, 48 h, read-out: Activity
RPMI-8226 = test: Growth inhibition of human RPMI8226 cells assessed as cell growth at 10^-8 M after 48 hrs by sulforhodamine B assay; conditions: RPMI-8226, 48 h, read-out: Activity
UACC-257 = test: Growth inhibition of human UACC257 cells assessed as cell growth at 10^-8 M after 48 hrs by sulforhodamine B assay; conditions: UACC-257, 48 h, read-out: Activity
NCI-H226 = test: Growth inhibition of human NCI-H226 cells assessed as cell growth at 10^-5 M after 48 hrs by sulforhodamine B assay; conditions: NCI-H226, 48 h, read-out: Activity
UO-31 = test: Growth inhibition of human UO31 cells assessed as cell growth at 10^-7 M after 48 hrs by sulforhodamine B assay; conditions: UO-31, 48 h, read-out: Activity
BT-549 = test: Growth inhibition of human BT549 cells assessed as cell growth at 10^-6 M after 48 hrs by sulforhodamine B assay; conditions: BT-549, 48 h, read-out: Activity
HOP-62 = test: Growth inhibition of human HOP62 cells assessed as cell growth at 10^-7 M after 48 hrs by sulforhodamine B assay; conditions: HOP-62, 48 h, read-out: Activity
SF-539 [3] = test: Growth inhibition of human SF539 cells assessed as cell growth at 10^-6 M after 48 hrs by sulforhodamine B assay; conditions: SF-539, 48 h, read-out: Activity
U-251 = test: Growth inhibition of human U251 cells assessed as cell growth at 10^-8 M after 48 hrs by sulforhodamine B assay; conditions: U-251, 48 h, read-out: Activity
SNB-19 = test: Growth inhibition of human SNB19 cells assessed as cell growth at 10^-5 M after 48 hrs by sulforhodamine B assay; conditions: SNB-19, 48 h, read-out: Activity
[4] = Growth inhibition of human NCI-ADR-RES cells assessed as cell growth at 10^-6 M after 48 hrs by sulforhodamine B assay; conditions: read-out: Activity
SK-OV-3 = test: Growth inhibition of human SKOV3 cells assessed as cell growth at 10^-5 M after 48 hrs by sulforhodamine B assay; conditions: SK-OV-3, 48 h, read-out: Activity
SR [5] = test: Growth inhibition of human SR cells assessed as cell growth at 10^-7 M after 48 hrs by sulforhodamine B assay; conditions: read-out: Activity
MOLT-4 = test: Growth inhibition of human MOLT4 cells assessed as cell growth at 10^-8 M after 48 hrs by sulforhodamine B assay; conditions: MOLT-4, 48 h, read-out: Activity
COLO 205 [6] = test: Growth inhibition of human COLO205 cells assessed as cell growth at 10^-5 M after 48 hrs by sulforhodamine B assay; conditions: COLO 205, 48 h, read-out: Activity
CCRF-CEM = test: Growth inhibition of human CCRF-CEM cells assessed as cell growth at 10^-7 M after 48 hrs by sulforhodamine B assay; conditions: read-out: Activity
SK-MEL-2 = test: Growth inhibition of human SK-MEL-2 cells assessed as cell growth at 10^-4 M after 48 hrs by sulforhodamine B assay; conditions: SK-MEL-2, 48 h, read-out: Activity
SW-620 = test: Growth inhibition of human SW620 cells assessed as cell growth at 10^-5 M after 48 hrs by sulforhodamine B assay; conditions: SW-620, 48 h, read-out: Activity
NCI-H522 = test: Growth inhibition of human NCI-H522 cells assessed as cell growth at 10^-7 M after 48 hrs by sulforhodamine B assay; conditions: NCI-H522, 48 h, read-out: Activity
A498 = test: Growth inhibition of human A498 cells assessed as cell growth at 10^-5 M after 48 hrs by sulforhodamine B assay; conditions: A498, 48 h, read-out: Activity
SF-268 [7] = test: Growth inhibition of human SF268 cells assessed as cell growth at 10^-7 M after 48 hrs by sulforhodamine B assay; conditions: SF-268, 48 h, read-out: Activity
HOP-92 = test: Growth inhibition of human HOP92 cells assessed as cell growth at 10^-4 M after 48 hrs by sulforhodamine B assay; conditions: HOP-92, 48 h, read-out: Activity
SF-268 [8] = test: Growth inhibition of human SF268 cells assessed as cell growth at 10^-5 M after 48 hrs by sulforhodamine B assay; conditions: SF-268, 48 h, read-out: Activity
PC-3 = test: Growth inhibition of human PC3 cells assessed as cell growth at 10^-6 M after 48 hrs by sulforhodamine B assay; conditions: PC-3, 48 h, read-out: Activity
A549 = test: Growth inhibition of human A549/ATCC cells assessed as cell growth at 10^-6 M after 48 hrs by sulforhodamine B assay; conditions: A549, 48 h, read-out: Activity
HL-60(TB) = test: Growth inhibition of human HL-60(TB) cells assessed as cell growth at 10^-7 M after 48 hrs by sulforhodamine B assay; conditions: HL-60, 48 h, read-out: Activity
HCT-15 = test: Growth inhibition of human HCT15 cells assessed as cell growth at 10^-6 M after 48 hrs by sulforhodamine B assay; conditions: HCT-15, 48 h, read-out: Activity
Malme-3M = test: Growth inhibition of human MALME-3M cells assessed as cell growth at 10^-4 M after 48 hrs by sulforhodamine B assay; conditions: read-out: Activity
[9] = Growth inhibition of human Hs 578T cells assessed as cell growth at 10^-7 M after 48 hrs by sulforhodamine B assay; conditions: read-out: Activity
OVCAR-3 = test: Growth inhibition of human OVCAR3 cells assessed as cell growth at 10^-4 M after 48 hrs by sulforhodamine B assay; conditions: OVCAR-3, 48 h, read-out: Activity
LOX IMVI = test: Growth inhibition of human LOXIMVI cells assessed as cell growth at 10^-7 M after 48 hrs by sulforhodamine B assay; conditions: read-out: Activity
SF-539 [10] = test: Growth inhibition of human SF539 cells assessed as cell growth at 10^-4 M after 48 hrs by sulforhodamine B assay; conditions: SF-539, 48 h, read-out: Activity
MCF7 = test: Growth inhibition of human MCF7 cells assessed as cell growth at 10^-5 M after 48 hrs by sulforhodamine B assay; conditions: MCF7, 48 h, read-out: Activity

Row | Structure (SMILES) | growth at 10 µM (MDA-MB-435) [%] | growth at 100 µM (COLO 205 [1]) [%] | growth at 10 µM (UACC-62) [%] | growth at 100 µM (SR [2]) [%] | growth at 0.1 µM (NCI-H460) [%] | growth at 0.01 µM (RPMI-8226) [%] | growth at 0.01 µM (UACC-257) [%] | growth at 10 µM (NCI-H226) [%] | growth at 0.1 µM (UO-31) [%] | growth at 1 µM (BT-549) [%] | growth at 0.1 µM (HOP-62) [%] | growth at 1 µM (SF-539 [3]) [%] | growth at 0.01 µM (U-251) [%] | growth at 10 µM (SNB-19) [%] | growth at 1 µM [4] [%] | growth at 10 µM (SK-OV-3) [%] | growth at 0.1 µM (SR [5]) [%] | growth at 0.01 µM (MOLT-4) [%] | growth at 10 µM (COLO 205 [6]) [%] | growth at 0.1 µM (CCRF-CEM) [%] | further results
1 | COc1cc(-c2nn(-c3cccc(NC(=O)c4ccc(N5CCOCC5)c(C(F)(F)F)c4)c3)cc2-c2ccncc2)ccc1Cl | -36 | -75 | -4 | 6 | 88 | 102 | 95 | 15 | 64 | 54 | 90 | -30 | 101 | 22 | 11 | -11 | 19 | 109 | -84 | 73 | growth at 100 µM (SK-MEL-2): -34%; growth at 10 µM (SW-620): 17%; growth at 0.1 µM (NCI-H522): 51%; growth at 10 µM (A498): -32%; growth at 0.1 µM (SF-268 [7]): 91%; growth at 100 µM (HOP-92): -30%; growth at 10 µM (SF-268 [8]): 12%; growth at 1 µM (PC-3): 15%; growth at 1 µM (A549): 31%; growth at 0.1 µM (HL-60(TB)): 73%; growth at 1 µM (HCT-15): 27%; growth at 100 µM (Malme-3M): -24%; growth at 0.1 µM [9]: 81%; growth at 100 µM (OVCAR-3): -33%; growth at 0.1 µM (LOX IMVI): 78%; growth at 100 µM (SF-539 [10]): -40%; growth at 10 µM (MCF7): 8%
2 | COc1cc(-c2nn(-c3cccc(NC(=O)c4ccccc4)c3)cc2-c2ccncc2)ccc1Cl | -48 | -54 | 25 | 12 | 99 | 102 | 93 | 26 | 81 | 53 | 98 | 21 | 96 | 30 | 28 | 31 | 79 | 102 | -31 | 101 | growth at 100 µM (SK-MEL-2): -30%; growth at 10 µM (SW-620): 23%; growth at 0.1 µM (NCI-H522): 85%; growth at 10 µM (A498): -19%; growth at 0.1 µM (SF-268 [7]): 94%; growth at 100 µM (HOP-92): -15%; growth at 10 µM (SF-268 [8]): 24%; growth at 1 µM (PC-3): 29%; growth at 1 µM (A549): 37%; growth at 0.1 µM (HL-60(TB)): 100%; growth at 1 µM (HCT-15): 40%; growth at 100 µM (Malme-3M): 20%; growth at 0.1 µM [9]: 97%; growth at 100 µM (OVCAR-3): -51%; growth at 0.1 µM (LOX IMVI): 94%; growth at 100 µM (SF-539 [10]): -22%; growth at 10 µM (MCF7): 10%
